The experiment deals with Mfn2 null MEFs. In words: Mitochondrial elongation (aspect ratio) fusogenicity assay. Conditions: for % long compare to B: mitochondrial elongation relative to Cpd B (B01 = 100), compound overnight as printed (FIG. 48); for % long compare to B / Aspect ratio (MEAN ± SEM): Mfn2 null MEFs; for Aspect ratio (MEAN ± SEM): overnight, treatment with 1 μM compound (footnote); for Fusogenicity Rank: rank order of aspect ratio among 44 soluble library compounds. The arrangement: % long compare to B: dose or concentration left out as unconfirmed. The experiment is classed as cell-based, mouse.

The values below come from US10844023B2 (Washington University, priority 2017, dated 2020).

`Cc1ccc(N2C[C@@H]3CC[C@H](C2)N(Cc2ccccn2)C3=O)nn1` [D12, (1S,5R)-3-(6-methylpyridazin-3-yl)-6-[(pyridin-2-yl)methyl)-3,6-diazabicyclo[3.2.2] nonan-7-one]: the “% long compare to B” value is reported as −4%. `CC(C)C1=CC2C(=O)NC(CSCC(=O)NCc3ccccn3)=NC2S1` (stereo not drawn) [E02, 2-({[4-oxo-6-(propan-2-yl)-3H,4H,4aH,7aH-thieno[2,3-d]pyrimidin-2-yl]methyl}sulfanyl)-N-[(pyridin-2-yl)methyl]acetamide]: the “% long compare to B” value was found to be 11%. With `Cc1nc[nH]c1CSCCn1cnc2cn(C)nc2c1=O` [E03, 2-methyl-6-(2-{[(4-methyl-1H-imidazol-5-yl)methyl]sulfanyl}-ethyl)-2H,6H,7H-pyrazolo[4,3-d]pyrimidin-7-one], the “% long compare to B” value is given as −10%. On the same count and under the same terms, then `CCC(C)NC(=O)c1ccccc1NC(=O)C(C)Sc1ccc(C)cc1` (stereo not drawn) [E04, N-(butan-2-yl)-2-{2-[(4-methyl-phenyl)sulfanyl]pro-panamido}benzamide], with 1%; and `O=C(NCCSCc1ccccc1)C1CCCCO1` (stereo not drawn) [E05, N-[2-(benzyl-sulfanyl)ethyl]oxane-2-carboxamide], with 1%; and `Cc1nnc(SCCCNC(=O)c2n[nH]c3c2CN(C)CC3)s1` [E06, 5-methyl-N-{3-[(5-methyl-1,3,4-thiadiazol-2-yl)sulfanyl]propyl}-1H,4H,5H,6H,7H-pyrazolo[4,3-c]pyridine-3-carboxamide], with −3%. As to `c1ccc(CSCCc2nc(C3CCOC3)no2)cc1` (stereo not drawn) [E07, 5-[2-(benzylsulfanyl)ethyl]-3-(oxolan-3-yl)-1,2,4-oxadiazole], the “% long compare to B” value was 4%. Regarding `CC(c1cccc([N+](=O)[O-])c1)N(C)CC(=O)NCCSCc1ccccc1C#N` (stereo not drawn) [N-(2-{[(2-cyanophenyl)methyl]sulfanyl}ethyl)-2-{methyl[1-(3-nitrophenyl)ethyl]amino}acetamide], the “Aspect ratio (MEAN ± SEM)” value is 4.0 ± 0.5 and the “Fusogenicity Rank” value came to 16. The matching figures for `Cc1cccc(NC(=O)CSCC(=O)N(Cc2ccc(N(C)C)cc2)C(C)C)c1` [N-{[4-(dimethylamino)phenyl]methyl}-2-({[(3-methylphenyl)carbamoyl]methyl}sulfanyl)-N-(propan-2-yl)acetamide]: 4.6 ± 0.2 and 12. Turning to `Cc1cc(C)n2nc(C(=O)N3C[C@@H]4CCN(Cc5nccn5C)[C@@H]4C3)cc2n1` [drawing 198, 2-{[(3aS,6aS)-5-{5,7-dimethylpyrazolo[1,5-a]pyrimidine-2-carbonyl}-octahydropyrrolo[3,4-b]pyrrol-1-yl]methyl}-1-methyl-1H-imidazole], the “Aspect ratio (MEAN ± SEM)” value stood at 9.0 ± 3.1 and the “Fusogenicity Rank” value turned out to be 1. The matching figures for `O=C1CC(SCCc2nc3ccccc3[nH]2)C(=O)N1c1cccc(F)c1` (stereo not drawn) [drawing 199, 3-{[2-(1H-1,3-benzodiazol-2-yl)ethyl]sulfanyl}-1-(3-fluorophenyl)pyrrolidine-2,5-dione]: 6.9 ± 0.8 and 3.

Take `Cc1ccc(C(C)C)c(OCCCSCc2nc3ccccc3[nH]2)c1` [drawing 200, 2-[({3-[5-methyl-2-(propan-2-yl)phenoxy]propyl}sulfanyl)methyl]-1H-1,3-benzodiazole]: the “Aspect ratio (MEAN ± SEM)” value is listed as 3.0 ± 0.4 and the “Fusogenicity Rank” value is listed as 37. The matching figures for `COc1ccc(SC(C)C(=O)Nc2cc[nH]n2)cc1` (stereo not drawn) [drawing 201, 2-[(4-methoxyphenyl)sulfanyl]-N-(1H-pyrazol-3-yl)propanamide]: 3.8 ± 0.4 and 22. The matching figures for `O=C(CSCc1ccc(F)cc1)N1CCc2c([nH]c3ccccc23)C1c1ccc(Cl)cc1` (stereo not drawn) [drawing 202, 1-[1-(4-chlorophenyl)-1H,2H,3H,4H,9H-pyrido[3,4-b]indol-2-yl]-2-{[(4-fluorophenyl)methyl]sulfanyl}ethan-1-one]: 4.7 ± 0.9 and 11.
